Reference: patent US7825256B2, “Inducible nitric oxide synthase dimerization inhibitors” (Kalypsys, Inc., priority 2004, dated 2010)

Test system: rat
Test: Capsaicin test (topical capsaicin allodynia)
Assay type: in vivo
From the text: Subcutaneous injection of dilute capsaicin into the rat hind paw produces transient but pronounced hyperalgesia, allodynia and pain. This effect may be mitigated by pretreatment with a suitable agent, such as a topical anaesthetic or analgesic, and the extent of this mitigation quantified by evaluation of pain-related behaviors in response to noxious or innocuous stimuli as described above; rats pretreated with a known analgesic display fewer pain and allodynia related behaviors than controls. Compounds may be evaluated for their efficacy as potential analgesics in this manner as well.
Male Lewis rats weighing between 180 and 250 grams are used. The right hind paw is dipped into vehicle (100% acetone) or compound in vehicle for 30 seconds and then allowed to air-dry for 30 sec. To prevent the animal from licking the compound off the paw, the paw is wiped twice with a wet paper towel. At 15 min after application of vehicle or compound, 0.1 mg in 10 μL capsaicin is injected into right hind paw. Measurement of allodynia is performed 0.5 to 1 hour after capsaicin injection.
One procedure for quantifying allodynia measures the rat behavioral response to presentation of von Frey filaments of increasing diameter. Each rat is placed in a small, clear cage on an elevated screen. Beginning with 4.31, the von Frey hair is presented perpendicularly to the right mid-plantar hind paw with sufficient force to cause slight buckling, for 6-8 seconds. If presentation lifts the hind paw it is disregarded, as it changes the nature of the stimulus. A positive response is noted if the paw is sharply withdrawn upon onset or offset of stimulus. Ambulation is considered an ambiguous response and the presentation is repeated. Stimuli are presented in a consecutive fashion. A positive response would call for the presentation of the immediately weaker weight filament next; likewise, no response would call for the immediately stronger. Presentations continue until a series of six consecutive responses from the first change is logged. The next rat is then tested. This procedure is standard in the art for the measurement of allodynia, but any other method known in the art which provides adequate sensitivity and reproducibility may be substituted.

[1] = at 0.5 hr after capsaicin injection
[2] = at 1 hr after capsaicin injection

SMILES | Topical Capsaicin Allodynia [1] | Topical Capsaicin Allodynia [2]
Cc1cc(C2CCCN2C(=O)CNCc2ccc3c(c2)OCO3)nc(-n2ccnc2)n1 (stereo not drawn) [Example 5] | + at 0.5 hr ((+) = >15% inhibition) | − at 1 hr ((−) = <15% inhibition)
Cc1cc(C2CCCN2C(=O)NCCc2ccc3c(c2)OCO3)nc(-n2ccnc2)n1 (stereo not drawn) [Example 4, 2-(2-Imidazol-1-yl-6-methyl-pyrimidin-4-yl)-pyrrolidine-1-carboxylic acid (2-benzo[1,3]dioxol-5-yl-ethyl)-amide] | − at 0.5 hr ((−) = <15% inhibition) | + at 1 hr ((+) = >15% inhibition)
CN(CCCNCc1ccc2c(c1)OCO2)c1nc(-n2ccnc2)ns1 [Example 2, N′-Benzo[1,3]dioxol-5-ylmethyl-N-(3-imidazol-1-yl-[1,2,4]thiadiazol-5-yl)-N-methyl-propane-1,3-diamine] | + at 0.5 hr ((+) = >15% inhibition) | + at 1 hr ((+) = >15% inhibition)
